Patent publication US8952024B2, “Herbicidal pyrimidone derivatives” (E I du Pont de Nemours and Company, priority 2009, dated 2015)

Tests used:
Format in all cases: in vivo
[1] = test system: ducksalad (Heteranthera limosa); assay: Test B flooded paddy test
Summary of the method: (§1)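 Greenhouse-held for 13 to 15 days, treated pots were compared visually with controls and scored 0–100 (0, no effect). Treatment had been made into paddy water kept at 3 cm above the soil, with plants at the 2-leaf stage.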

[2] = test system: umbrella sedge (Cyperus difformis); assay: Test B flooded paddy test
Summary of the method: as §1

[3] = test system: rice (Oryza sativa); assay: Test B flooded paddy test
Summary of the method: as §1

[4] = test system: barnyardgrass (Echinochloa crus-galli); assay: Test B flooded paddy test
Summary of the method: as §1

[5] = test system: giant foxtail (Setaria faberii); assay: Test A pre-/postemergence plant response
Summary of the method: (§2)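 Plants grown from seed in a loam soil and sand mix received test compounds both as a preemergence soil spray and, at the same time, as a postemergence spray at the one- to two-leaf stage. Injury was judged visually against untreated controls roughly ten days later, 0 meaning no effect and 100 complete control.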

[6] = test system: pigweed (Amaranthus retroflexus); assay: Test A pre-/postemergence plant response
Summary of the method: as §2

[7] = test system: wheat (Triticum aestivum); assay: Test A pre-/postemergence plant response
Summary of the method: as §2

[8] = test system: velvetleaf (Abutilon theophrasti); assay: Test A pre-/postemergence plant response
Summary of the method: as §2

[9] = test system: large crabgrass (Digitaria sanguinalis); assay: Test A pre-/postemergence plant response
Summary of the method: as §2

[10] = test system: barnyardgrass (Echinochloa crus-galli); assay: Test A pre-/postemergence plant response
Summary of the method: as §2

[11] = test system: corn (Zea mays); assay: Test A pre-/postemergence plant response
Summary of the method: as §2

[12] = test system: morningglory (Ipomoea spp.); assay: Test A pre-/postemergence plant response
Summary of the method: as §2

[13] = 250 g ai/ha, flooded paddy test, visual rating on 0 to 100 scale (0 no effect, 100 complete control) after 13 to 15 days
[14] = Flood (flooded paddy test), 62 g ai/ha, scale of 0 to 100 where 0 is no effect and 100 is complete control, 13 to 15 days
[15] = Postemergence, 125 g ai/ha, 0 to 100 scale where 0 is no effect and 100 is complete control
[16] = Postemergence, 500 g ai/ha, visual injury, 0 to 100 scale (0 no effect, 100 complete control), approx. ten days
[17] = Preemergence, 125 g ai/ha, 0 to 100 scale, 0 = no effect, 100 = complete control
[18] = Preemergence, 500 g ai/ha, 0 to 100 scale, 0 = no effect, 100 = complete control

C=CCCn1c(-c2ccccc2)ncc(C(=O)C2=C(O)CCCC2=O)c1=O [Compound 214]
80: Plant response rating, Crabgrass, Large [9, 15] | Plant response rating, Barnyardgrass [10, 15] | Plant response rating, Morningglory [12, 15] | Plant response rating, Morningglory [12, 18]
20: Plant response rating, Flood, Barnyardgrass [4, 13] | Wheat plant response rating [7, 16]
10: Plant response rating, Barnyardgrass [10, 17]
95: Plant response rating, Flood, Ducksalad [1, 13]
30: Plant response rating, Foxtail, Giant [5, 17] | Plant response rating, Wheat [7, 18] | Plant response rating, Crabgrass, Large [9, 17] | Corn plant response rating [11, 16]
85: Plant response rating, Flood, Sedge, Umbrella [2, 13]
50: Plant response rating, Foxtail, Giant [5, 15]
100: Pigweed plant response rating [6, 16] | Plant response rating, Velvetleaf [8, 15] | Velvetleaf plant response rating [8, 16] | Plant response rating, Velvetleaf [8, 18] | Morningglory plant response rating [12, 16]
90: Foxtail, Giant plant response rating [5, 16] | Plant response rating, Pigweed [6, 15] | Plant response rating, Pigweed [6, 18] | Plant response rating, Velvetleaf [8, 17] | Crabgrass, Large plant response rating [9, 16] | Plant response rating, Crabgrass, Large [9, 18] | Barnyardgrass plant response rating [10, 16]
70: Plant response rating, Foxtail, Giant [5, 18] | Plant response rating, Pigweed [6, 17]
60: Plant response rating, Barnyardgrass [10, 18]
15: Plant response rating, Flood, Rice [3, 13]
0: Plant response rating, Ducksalad [1, 14] | Plant response rating, Sedge, Umbrella [2, 14] | Plant response rating, Rice [3, 14] | Plant response rating, Barnyardgrass [4, 14] | Plant response rating, Wheat [7, 15] | Plant response rating, Wheat [7, 17] | Plant response rating, Corn [11, 15] | Plant response rating, Corn [11, 17] | Plant response rating, Corn [11, 18] | Plant response rating, Morningglory [12, 17]
